Several values for one entry are separate records, joined by “and”; a condition that tells them apart may be missing. Equal entries are not always repeated. Where two headings read alike, the source gives them in different places.
Legend:
dogs [1] = test: Long-term toxicology studies in dogs; format: in vivo, dog
Method: In long‐term toxicology studies, dose‐limiting non‐specific central nervous system (CNS) effects (including impaired mobility and tremor) occurred in dogs at ≥ 30 mg/kg/day and in male rats (adverse effects only observed at doses ≥ 500 mg/kg/day). […] After CNP520 withdrawal, all changes either trended toward being, or were, fully reversible. The organs that were affected by drug toxicity in these animal studies either were not relevant to the clinical target population or the toxicities occurred at a dose substantially higher than the efficacious clinical dose.
In vivo animal toxicity studies were performed according to ICH guidance for industry M3(R2) and conformed to the Institutional Animal Care and Use Guidelines for the contract laboratory and sponsor. […] Recovery was assessed after a 12‐week treatment‐free period. Beagle dogs from Marshall BKU UK, 11 months of age, were given 0 (vehicle), 5, 15, or 30 mg/kg/day for 39 weeks. Vehicle consisted of 0.5% (w/v) methylcellulose (1,500 cPS) in 0.1% (v/v) polysorbate 80 (Tween®‐80) in reverse osmosis water. At necropsy, tissues were immersion fixed in 10% neutral‐buffered formalin or modified Davidson's solution and then processed by routine methods to paraffin block and hematoxylin–eosin (H&E)‐stained histologic slides.

dogs [2] = test: Cardiovascular safety pharmacology in dogs; format: in vivo, dog
clinical = format: in vivo, human; conditions: for CSF Cmax: ≥ 60 years
Method: The lower limit of quantification (LLOQ) was 1 ng/ml in plasma and 2 ng/ml in urine and CSF, except for the 3‐month study where the method for CSF was more sensitive (LLOQ 0.1 ng/ml). Plasma PK parameters were calculated using actual recorded sampling times and non‐compartmental methods with Phoenix WinNonlin version 6.4 (Certara, Inc., Princeton, NJ, USA). […]

[3] = system: healthy participants ≥ 60 years; test: Adverse events after single dose (Appendix Table S6); format: in vivo, human
Excerpt: For further details, see the Appendix Table S10 in Appendix and the accompanying clinical protocols synopsis (Appendix Table S11).
Appendix Table S3. Overview of completed clinical studies with CNP520
Study description Population No. of Participants Dose/Frequency […]
First-in-human, randomized, 18-55 yrs 38 / 14 Single dose (10, 30, 90, […]
controlled, single and multiple CNP520 vs placebo) ascending oral dose study to Single dose (10, 90, 300,

Ghrelin receptor (GHS) = Ghrelin receptor (GHS) (Homo sapiens, UniProt Q92847); test: Receptor panel binding; conditions: read-out: Inhibition at 10 µM
Sequence of Ghrelin receptor (GHS) (Q92847 whole entry): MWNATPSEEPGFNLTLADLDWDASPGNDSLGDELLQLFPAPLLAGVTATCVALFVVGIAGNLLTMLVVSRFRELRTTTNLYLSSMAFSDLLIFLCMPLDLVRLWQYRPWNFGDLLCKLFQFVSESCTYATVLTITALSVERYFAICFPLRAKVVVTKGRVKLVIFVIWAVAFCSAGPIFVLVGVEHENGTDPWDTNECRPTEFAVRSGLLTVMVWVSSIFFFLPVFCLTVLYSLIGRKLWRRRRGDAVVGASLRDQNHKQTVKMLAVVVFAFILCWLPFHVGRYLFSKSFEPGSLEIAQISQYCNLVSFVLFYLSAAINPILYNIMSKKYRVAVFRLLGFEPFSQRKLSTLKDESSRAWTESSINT
Method: (§1) Cellular Aβ release assays were done in CHO cells stably transfected with human wild‐type and human APP were done as described (Neumann et al, 2015). Determinations of logD, pKa, and binding to brain homogenates were done internally at Novartis, Basel. Plasma protein binding was determined by equilibrium dialysis using diluted plasma from the corresponding species. MDR‐1‐MDCK cells were obtained from Prof. A. Berns, Netherlands Cancer Institute, Amsterdam NL, and bi‐directional transport measurements were done as described (Rueeger et al, 2011). Receptor binding assays were done against an internal receptor panel and externally at Ricerca Biosciences, Peitou, Taiwan. In vitro binding and cellular patch clamp assays for hERG were done at Preclinical Safety, Novartis, Basel.

[4] = target: Monoamine transporter VMAT2 (Oryctolagus cuniculus, UniProt G1T2K3); test: Receptor panel binding; parameters: species or system Rabbit; conditions: read-out: Inhibition at 10 µM
Sequence of Monoamine transporter VMAT2 (G1T2K3 1-509): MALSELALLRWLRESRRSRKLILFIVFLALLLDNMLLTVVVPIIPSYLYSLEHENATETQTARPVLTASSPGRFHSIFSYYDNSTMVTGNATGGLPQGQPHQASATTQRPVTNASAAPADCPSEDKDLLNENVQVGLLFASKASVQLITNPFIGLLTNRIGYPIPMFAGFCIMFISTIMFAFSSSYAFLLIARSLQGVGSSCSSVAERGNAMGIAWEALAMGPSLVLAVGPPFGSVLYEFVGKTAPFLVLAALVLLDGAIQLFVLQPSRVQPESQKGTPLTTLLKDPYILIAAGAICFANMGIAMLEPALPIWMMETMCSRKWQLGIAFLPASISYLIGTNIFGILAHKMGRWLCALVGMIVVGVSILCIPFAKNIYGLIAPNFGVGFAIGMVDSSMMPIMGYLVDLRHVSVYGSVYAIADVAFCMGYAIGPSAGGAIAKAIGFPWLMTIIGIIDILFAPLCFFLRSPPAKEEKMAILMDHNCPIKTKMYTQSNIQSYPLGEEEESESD
Method: as §1

[5] = system: Calcium channel L-type, phenylalkylamine site; test: Receptor panel binding; parameters: species or system Rat
Method: as §1

[6] = system: Imidazoline I2 receptor central; test: Receptor panel binding; parameters: species or system Rat
Method: as §1

[7] = system: Sodium channel, binding site 2; test: Receptor panel binding; parameters: species or system Rat
Method: as §1

[8] = system: healthy participants ≥ 60 years; test: Adverse events after once-daily dosing over two weeks (Appendix Table S7); format: in vivo, human

SMILES: C[C@@]1(c2nc(NC(=O)c3ncc(C(F)(F)F)cc3Cl)ccc2F)CO[C@@](C)(C(F)(F)F)C(N)=N1 [CNP520]
- No Adverse Effect Level (dogs [1]; dog, authors' response in review file): 30 mg/kg/day
- dose with dose-limiting non-specific CNS effects (impaired mobility, tremor) (dogs [1]; dogs, long-term toxicology): ≥ 30 mg/kg/day
- free plasma C max (dogs [2]; 200 mg/kg): 230 nM
- effect on heart rate, ECG morphology, blood pressure (dogs [2]; doses up to 200 mg/kg, and repeat dose toxicology studies (2, 4, 13, 39 weeks)): no effect on heart rate, ECG morphology, or blood pressure
- CSF conc 24h after dose Day 14 (clinical; 10 mg q.d., 2 weeks, LLOQ 2 ng/ml in CSF): < LLOQ
- concentration at 24 h (clinical; both sexes, human, CSF, oral, 2 mg q.d., 3 month study, mean (CV %), read-out: CSF conc 24h after dose Day 91): 0.305 ng/mL
- concentration at 24 h (clinical; both sexes, human, CSF, oral, 10 mg q.d., 3 month study, mean (CV %), read-out: CSF conc 24h after dose Day 91): 1.44 ng/mL
- concentration at 24 h (clinical; both sexes, human, CSF, oral, 30 mg q.d., 2 weeks, mean (CV %), read-out: CSF conc 24h after dose Day 14): 3.33 ng/mL
- concentration at 24 h (clinical; both sexes, human, CSF, oral, 35 mg q.d., 3 month study, mean (CV %), read-out: CSF conc 24h after dose Day 91): 4.52 ng/mL
- concentration at 24 h (clinical; both sexes, human, CSF, oral, 85 mg q.d., 3 month study, mean (CV %), read-out: CSF conc 24h after dose Day 91): 10.4 ng/mL
- concentration at 24 h (clinical; both sexes, human, CSF, oral, 90 mg q.d., 2 weeks, mean (CV %), read-out: CSF conc 24h after dose Day 14): 9.48 ng/mL
- concentration at 24 h (clinical; both sexes, human, CSF, oral, 300 mg q.d., 2 weeks, mean (CV %), read-out: CSF conc 24h after dose Day 14): 29.8 ng/mL
- Cmax (clinical; both sexes, human, CSF, oral, single dose of 750 mg, read-out: CSF mean C max): 39.7 nM
- CSF Cmax (clinical; single dose 10 mg, LLOQ 2 ng/ml in CSF): < LLOQ
- CSF Cmax (clinical; single dose 90 mg, mean (CV %)): 3.33 ( 65.2 ) ng/ml
- CSF Cmax (clinical; single dose 300 mg, mean (CV %)): 10.5 (49.1) ng/ml
- CSF Cmax (clinical; single dose 750 mg, mean (CV %)): 20.4 (44.8) ng/ml and 20.4 ng/ml
- AE incidence: Blood and lymphatic system disorders ([3]; single dose 300 mg, N = 10): 1 (10.0) n (%)
- AE incidence: Cardiac disorders ([3]; single dose 300 mg, N = 10): 1 (10.0) n (%)
- AE incidence: Gastrointestinal disorders ([3]; single dose 300 mg, N = 10): 4 (40.0) n (%)
- AE incidence: General disorders and administration site conditions ([3]; single dose 300 mg, N = 10): 3 (30.0) n (%)
- AE incidence: Nervous system disorders ([3]; single dose 300 mg, N = 10): 4 (40.0) n (%)
- AE incidence: Renal and urinary disorders ([3]; single dose 300 mg, N = 10): 0 (0.0) n (%)
- AE incidence: Respiratory, thoracic and mediastinal disorders ([3]; single dose 300 mg, N = 10): 2 (20.0) n (%)
- AE incidence: Skin and subcutaneous tissue disorders ([3]; single dose 300 mg, N = 10): 3 (30.0) n (%)
- Participants with at least one AE ([3]; single dose 300 mg, N = 10): 10 (100.0) n (%)
- AE incidence: Blood and lymphatic system disorders ([3]; single dose 750 mg, N = 11): 0 (0.0) n (%)
- AE incidence: Cardiac disorders ([3]; single dose 750 mg, N = 11): 0 (0.0) n (%)
- AE incidence: Gastrointestinal disorders ([3]; single dose 750 mg, N = 11): 3 (27.3) n (%)
- AE incidence: General disorders and administration site conditions ([3]; single dose 750 mg, N = 11): 3 (27.3) n (%)
- AE incidence: Nervous system disorders ([3]; single dose 750 mg, N = 11): 7 (63.6) n (%)
- AE incidence: Renal and urinary disorders ([3]; single dose 750 mg, N = 11): 1 (9.1) n (%)
- AE incidence: Respiratory, thoracic and mediastinal disorders ([3]; single dose 750 mg, N = 11): 0 (0.0) n (%)
- AE incidence: Skin and subcutaneous tissue disorders ([3]; single dose 750 mg, N = 11): 1 (9.1) n (%)
- Participants with at least one AE ([3]; single dose 750 mg, N = 11): 9 (81.8) n (%)
- inhibition at 10 µM (Ghrelin receptor (GHS)): 79%
- inhibition at 10 µM [4]: 79%
- inhibition at 10 µM [5]: 78%
- inhibition at 10 µM [6]: 61%
- inhibition at 10 µM [7]: 104%
- AE incidence: Ear and labyrinth disorders ([8]; 10 mg once daily, N = 9): 0 (0.0) n (%)
- AE incidence: Eye disorders ([8]; 10 mg once daily, N = 9): 1 (11.1) n (%)
- AE incidence: Gastrointestinal disorders ([8]; 10 mg once daily, N = 9): 3 (33.3) n (%)
- AE incidence: General disorders and administration site conditions ([8]; 10 mg once daily, N = 9): 0 (0.0) n (%)
- AE incidence: Infections and infestations ([8]; 10 mg once daily, N = 9): 2 (22.2) n (%)
- AE incidence: Metabolism and nutrition disorders ([8]; 10 mg once daily, N = 9): 0 (0.0) n (%)
- AE incidence: Nervous system disorders ([8]; 10 mg once daily, N = 9): 4 (44.4) n (%)
- AE incidence: Psychiatric disorders ([8]; 10 mg once daily, N = 9): 1 (11.1) n (%)
- AE incidence: Renal and urinary disorders ([8]; 10 mg once daily, N = 9): 0 (0.0) n (%)
- AE incidence: Skin and subcutaneous tissue disorders ([8]; 10 mg once daily, N = 9): 0 (0.0) n (%)
- AE incidence: Ear and labyrinth disorders ([8]; 30 mg once daily, N = 9): 1 (11.1) n (%)
- AE incidence: Eye disorders ([8]; 30 mg once daily, N = 9): 0 (0.0) n (%)
- AE incidence: Gastrointestinal disorders ([8]; 30 mg once daily, N = 9): 2 (22.2) n (%)
- AE incidence: General disorders and administration site conditions ([8]; 30 mg once daily, N = 9): 1 (11.1) n (%)
- AE incidence: Infections and infestations ([8]; 30 mg once daily, N = 9): 2 (22.2) n (%)
- AE incidence: Metabolism and nutrition disorders ([8]; 30 mg once daily, N = 9): 0 (0.0) n (%)
- AE incidence: Nervous system disorders ([8]; 30 mg once daily, N = 9): 0 (0.0) n (%)
- AE incidence: Psychiatric disorders ([8]; 30 mg once daily, N = 9): 0 (0.0) n (%)
- AE incidence: Respiratory, thoracic and mediastinal disorders ([8]; 30 mg once daily, N = 9): 0 (0.0) n (%)
- AE incidence: Skin and subcutaneous tissue disorders ([8]; 30 mg once daily, N = 9): 0 (0.0) n (%)
- Participants with any AE(s) ([8]; 30 mg once daily, N = 9): 5 (55.6) n (%)
- AE incidence: Ear and labyrinth disorders ([8]; 90 mg once daily, N = 9): 0 (0.0) n (%)
- AE incidence: Eye disorders ([8]; 90 mg once daily, N = 9): 1 (11.1) n (%)
- AE incidence: Gastrointestinal disorders ([8]; 90 mg once daily, N = 9): 3 (33.3) n (%)
- AE incidence: General disorders and administration site conditions ([8]; 90 mg once daily, N = 9): 0 (0.0) n (%)
- AE incidence: Infections and infestations ([8]; 90 mg once daily, N = 9): 2 (22.2) n (%)
- AE incidence: Metabolism and nutrition disorders ([8]; 90 mg once daily, N = 9): 0 (0.0) n (%)
- AE incidence: Nervous system disorders ([8]; 90 mg once daily, N = 9): 1 (11.1) n (%)
- AE incidence: Psychiatric disorders ([8]; 90 mg once daily, N = 9): 0 (0.0) n (%)
- AE incidence: Renal and urinary disorders ([8]; 90 mg once daily, N = 9): 1 (11.1) n (%)
- AE incidence: Respiratory, thoracic and mediastinal disorders ([8]; 90 mg once daily, N = 9): 1 (11.1) n (%)
- AE incidence: Skin and subcutaneous tissue disorders ([8]; 90 mg once daily, N = 9): 0 (0.0) n (%)
- Participants with any AE(s) ([8]; 90 mg once daily, N = 9): 6 (66.7) n (%)
- AE incidence: Eye disorders ([8]; 300 mg once daily, N = 8): 0 (0.0) n (%)
- AE incidence: Gastrointestinal disorders ([8]; 300 mg once daily, N = 8): 2 (25.0) n (%)
- AE incidence: General disorders and administration site conditions ([8]; 300 mg once daily, N = 8): 1 (12.5) n (%)
- AE incidence: Infections and infestations ([8]; 300 mg once daily, N = 8): 0 (0.0) n (%)
- AE incidence: Metabolism and nutrition disorders ([8]; 300 mg once daily, N = 8): 2 (25.0) n (%)
- AE incidence: Nervous system disorders ([8]; 300 mg once daily, N = 8): 3 (37.5) n (%)
- AE incidence: Psychiatric disorders ([8]; 300 mg once daily, N = 8): 0 (0.0) n (%)
- AE incidence: Renal and urinary disorders ([8]; 300 mg once daily, N = 8): 1 (12.5) n (%)
- AE incidence: Respiratory, thoracic and mediastinal disorders ([8]; 300 mg once daily, N = 8): 0 (0.0) n (%)
- AE incidence: Skin and subcutaneous tissue disorders ([8]; 300 mg once daily, N = 8): 2 (25.0) n (%)
- Participants with any AE(s) ([8]; 300 mg once daily, N = 8): 6 (75.0) n (%)

Source: PMC6220303 (EMBO Molecular Medicine, 2018)
